The supplement of paper PMC10949913

What was measured:
Settings in all cases: 48 h
CU-ACC1 [1] = test: AC50 viability; higher = less potent
Summary of the method: (§1)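 Library compounds were tested at 11 concentrations against three adrenocortical carcinoma cell lines in 1,536-well plates. CellTiter-Glo luminescence was read after 48 h and normalised per plate to vehicle and empty-well controls. Only inhibitory or non-responding curve classes from fitted concentration-response curves contributed AC50 and area under the curve.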

CU-ACC2 = test: area under concentration-response curve (viability) (AUC (a.u.)); higher = less active
Summary of the method: as §1

NCI-H295R = test: as above
Summary of the method: as §1

CU-ACC1 [2] = test: as above
Summary of the method: as §1

Row | SMILES | AC50 viability (CU-ACC1 [1]) | area under concentration-response curve (CU-ACC2) | area under concentration-response curve (NCI-H295R) | area under concentration-response curve (CU-ACC1 [2])
1 | CCN(CC)CCCC[C@H](NC(=O)[C@H](CC(C)C)NC(=O)[C@H](C)NC(=O)[C@H](Cc1ccccc1)NC(=O)c1ccc(C(C)(C)C)cc1)C(=O)N[C@@H](CO)C(=O)OC | 0.0132 µM | 424 | 421 | 446
2 | CC1=C(C)C\2=C(S1)[N]3C(=NN=C3C(CC(=O)NC4=CC=C(O)C=C4)\N=C2C5=CC=C(Cl)C=C5)C (configuration not stated) | 2.63 µM | 549 | 527 | 458
3 | Cc1ccc(N[S+](=O)([O-])c2cccc(C#N)c2)c2[nH]cc(C#N)c12 | 0.833 µM | 576 | 489 | 451
4 | FC1=C(C=C(C/C2=N/NC(=O)C3=C2C=CC=C3)C=C1)C(=O)N4CCN(CC4)C(=O)C5CC5 | 10.5 µM | 464 | 434 | 456
5 | Cn1cnc2c(F)c(Nc3ccc(Br)cc3F)c(C(=O)NOCCO)cc21 | 0.0332 µM | 145 | 159 | 242
6 | CO[C@H]1C[C@@H]2CC[C@@H](C)[C@@](O)(O2)C(=O)C(=O)N2CCCC[C@H]2C(=O)O[C@H]([C@H](C)C[C@@H]2CC[C@@H](OCCO)[C@H](OC)C2)CC(=O)[C@H](C)/C=C(/C)[C@@H](O)[C@@H](OC)C(=O)[C@H](C)C[C@H](C)\C=C/C=C\C=C/1C | 18.6 µM | 439 |  | 421
7 | CN(C)CCOc1cc(-c2cn[nH]c2)ccc1NC(=O)C1COc2ccccc2O1 (configuration not stated) | 20.9 µM | 426 | 452 | 390
8 | O=C(Nc1cccc(Br)c1)c1cccc([S+](=O)([O-])N2CCCCCC2)c1 | 29.5 µM | 608 |  | 486
9 | COC1=CC=CC2=C1C(=C(/C(=O)N(C)C3=CC=C(C=C3)C(F)(F)F)C(=O)N2C)/O | 0.0525 µM | 187 |  | 279
10 | Cc1c(C(=O)N2CCOc3ccc(-c4ccc(N)nc4)cc3C2)ccc([S+](C)(=O)[O-])c1F | 8.33 µM | 516 | 473 | 428
11 | CC#C[C@@H](CC(=O)O)c1ccc(OCc2cccc(-c3ccc(C(F)(F)F)cc3)c2)cc1 | 1.48 µM | 506 | 411 | 406
12 | Clc1ccccc1C(c1ccccc1)(c1ccccc1)n1ccnc1 | 18.6 µM | 518 |  | 509
13 | CC1Oc2cc(cnc2N)-c2c(nn(C)c2C#N)CN(C)C(=O)c2ccc(F)cc21 (configuration not stated) | 6.61 µM | 485 |  | 463
14 | COC(=O)N1CCN(Cc2cccc(NC(=O)Nc3ccc(C)nc3)c2F)CC1 | 74.2 µM | 601 | 573 | 486
15 | O=C(NOCC(O)CO)c1cc(Br)c(F)c(F)c1Nc1ccc(I)cc1F (configuration not stated) | 1.18 µM | 407 |  | 416
16 | COC[C@H]1OC(=O)C2=COC3=C2[C@@]1(C)\C4=C(C5CCC(=O)[C@@]5(C)C[C@H]4OC(C)=O)/C3=O (some centres not stated) | 16.6 µM | 549 |  | 446
17 | O=C1c2cccc(O)c2C(=O)c2c(O)cc(CO)cc21 | 10.5 µM | 656 | 575 | 508
18 | COCCOC1=CN=C2\C=C/N([C@H](C)C3=NN=C4[N]3C=C(C=C4F)C5=C[N](C)N=C5)C(=O)C2=C1 | 0.0118 µM | 338 | 322 | 394
19 | CC(C)c1noc(N2CCC(COc3ccc(-c4ccc([S+](C)(=O)[O-])cc4)nc3)CC2)n1 | 8.33 µM | 583 | 496 | 419
20 | [O-][n+]1cccc(-c2nc3c(Cl)cccc3cc2[C@@H](Nc2ncnc3cccnc23)C(F)(F)F)c1 | 26.3 µM | 368 |  | 332
21 | c1ccc2c(-c3cnn4cc(-c5ccc(OCCN6CCOCC6)cc5)cnc34)ccnc2c1 | 4.56 µM | 637 | 568 | 395
22 | O=C(O)c1ccc(O)c2ncccc12 | 33.2 µM | 491 | 447 | 458
23 | CCOC(=O)[C@@]1(CCCCCCOc2ccc(Cl)cc2)CO1 | 23.5 µM | 624 |  | 382

Row | SMILES | AC50 viability (CU-ACC1 [1]) | area under concentration-response curve (CU-ACC2) | area under concentration-response curve (NCI-H295R) | area under concentration-response curve (CU-ACC1 [2])
24 | O=C(Nc1ccc(OC(F)(F)Cl)cc1)c1cnc(N2CC[C@@H](O)C2)c(-c2ccn[nH]2)c1 | 33.2 µM | 574 |  | 442
25 | FC(F)(F)c1ccc(Nc2nc3cc(Oc4ccnc(-c5ncc(C(F)(F)F)[nH]5)c4)ccc3[nH]2)cc1 | 4.68 µM | 603 |  | 479
26 | Clc1ccc(Cn2c(CN3CCCC3)nc3ccccc32)cc1 | 29.5 µM | 576 |  | 447
27 | O=C(CCN1CCN(C(=O)OCc2cc(Cl)cc(Cl)c2)CC1)c1ccc2[nH]c(=O)oc2c1 | 23.5 µM | 495 |  | 468
28 | CN1CCc2c(n(Cc3ccc(C(=O)NO)cc3)c3ccccc23)C1 | 29.5 µM | 482 |  | 426
29 | COC1CCC(C(=O)c2ccc3nc4c(cc3c2)CCCO4)CC1 (configuration not stated) | 16.6 µM | 501 |  | 460
30 | Cc1ccc(-n2nc(C(C)(C)C)cc2NC(=O)Nc2ccc(OCCN3CCOCC3)c3ccccc23)cc1 | 29.5 µM | 499 |  | 374
31 | O=C(NO)C1(C[S+](=O)([O-])c2ccc(Oc3ccc(Cl)cc3)cc2)CCOCC1 | 16.6 µM | 553 |  | 450
32 | O=C(O)c1ccc(O)c2ncc(N3CCOCC3)cc12 | 23.5 µM | 525 |  | 442
33 | NC(=O)c1noc([C@H](CCCC2CCCCC2)CC(=O)NO)n1 | 41.7 µM | 531 |  | 446
34 | CCC1CCCCN1C(=O)n1ncc(C(O)(c2ccccc2)c2ccccc2)n1 (configuration not stated) | 18.6 µM | 571 |  | 435
35 | CN(C)C(=O)c1ccc([S+](=O)([O-])c2ccc(NC(=O)[C@@](C)(O)C(F)(F)F)c(Cl)c2)cc1 | 5.25 µM | 640 |  | 346
36 | Clc1ccc(C(Cn2ccnc2)OCc2ccsc2Cl)c(Cl)c1 (configuration not stated) | 16.6 µM | 584 |  | 476
37 | O=C1N\N=C(\CC2=CC=CC(=C2)C(=O)N3CCN(CC3)C4=NC=CC=C4C#N)C5=CC=CC=C15 | 18.6 µM |  | 548 | 450
38 | O=C(NO)c1cnc(NC2(c3cccc(F)c3)CCCCC2)nc1 | 20.9 µM |  | 538 | 474
39 | CCn1c(-c2nonc2N)nc2cncc(CNC3CCNCC3)c21 | 14.8 µM |  | 526 | 477
40 | CN1CCC(CC1)=C2C3=C(C=CC=C3)\C=C/C4=C2C=CC=C4 | 8.33 µM | 480 |  | 373
41 | N[S+](=O)([O-])c1ccc([S+](=O)([O-])Nc2cccc3c(Cl)c[nH]c23)cc1 | 8.33 µM | 527 |  | 404
42 | CCOC(=O)c1c(CSc2ccccc2)n(C)c2cc(Br)c(O)c(CN(C)C)c12 | 37.2 µM | 600 |  | 476
43 | CN(C)Cc1ccc(-c2nc3cccc4c3n2CCNC4=O)cc1 | 33.2 µM | 216 |  | 294
44 | C[C@@H]1CC2C3C[C@H](F)C\4=C\C(=O)\C=C/[C@]4(C)[C@@]3(F)[C@@H](O)C[C@]2(C)[C@@]1(OC(=O)C5=CC=CO5)C(=O)SCF (some centres not stated) | 41.7 µM | 592 |  | 468
45 | OC1=CC2=C(C=C1)C(=O)\C(=C(O2)\C3=CC(=C(O)C=C3)O)O | 14.8 µM | 548 |  | 451
46 | CCc1ccc(/C=C2/SC(=S)NC2=O)cc1 | 2.63 µM |  | 394 | 396
